According to patent US8106218B2, “Pharmaceutical compounds” (Neuroscienze Pharmaness S.C. A R.L., priority 2004, dated 2012):
Where two headings read alike, the source gives them in different places.

Tests used:
[1] = target: T1, cannabinoidergic CB1 receptors (Rattus norvegicus, UniProt P20272); assay: Radioreceptorial binding, [3H]-CP-55,940 competition, rat brain membranes; settings: rat brain membranes, 1 nM [3H]-CP55,940; read-out: CB1 (brain) Ki
T1 construct: the brain in toto (cerebellum excluded) and the spleen were rapidly dissected and maintained in ice; from tissue; host or cells: rat brain (cerebellum excluded), membrane preparation
T1 sequence (P20272 whole entry): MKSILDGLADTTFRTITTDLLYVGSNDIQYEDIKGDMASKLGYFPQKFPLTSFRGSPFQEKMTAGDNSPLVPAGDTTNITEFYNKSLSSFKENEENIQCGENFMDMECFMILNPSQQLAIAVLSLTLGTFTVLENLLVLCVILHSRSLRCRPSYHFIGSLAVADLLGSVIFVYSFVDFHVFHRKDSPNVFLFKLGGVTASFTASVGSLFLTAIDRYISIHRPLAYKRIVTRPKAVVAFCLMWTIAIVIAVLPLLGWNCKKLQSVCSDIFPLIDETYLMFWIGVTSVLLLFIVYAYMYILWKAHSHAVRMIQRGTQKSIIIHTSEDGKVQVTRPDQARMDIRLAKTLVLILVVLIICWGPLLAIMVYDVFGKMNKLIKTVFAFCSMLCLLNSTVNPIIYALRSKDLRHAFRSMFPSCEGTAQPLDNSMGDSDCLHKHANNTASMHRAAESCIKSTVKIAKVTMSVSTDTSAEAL
Description: (§1) The affinity of the synthesized compounds towards the cannabinoidergic CB1 and CB2 receptors was evaluated in vitro through radioreceptorial binding studies by utilizing the following method.
(§2) The receptorial binding technique allows indeed to establish if and with what affinity and specificity a determined compound binds itself to a particular receptor. To evaluate the possible affinity of a determined compound towards a particular receptor it is necessary to make to compete (in a particular preparation of the tissue in which those determined receptors are present) the compound to be tested with another compound whose affinity is known and whose molecule was rendered radioactive. […] The reading of the radioactivity present in the receptor-compound complex allows furthermore to calculate with extreme precision the amount of compound bound to the receptor. […] By repeating the same experimental scheme it is possible to evaluate the affinity of the compound towards other kinds of receptors and establish then the specificity degree.
(§3) Food and water were available ad libitum.
(§4) The animals were sacrificed by cervical dislocation, the brain in toto (cerebellum excluded) and the spleen were rapidly dissected and maintained in ice.
(§5) The tissue was homogenized in 15 volumes (weight/volume) of TME buffer (50 mM Tris, 1 mM EDTA e 3 mM MgCl2, pH 7.4) by an Ultra-Turrax and centrifuged for 10 minutes at 1086×g in a centrifuge cooled at 4° C. The resulting supernatant was centrifuged at 45,000×g for 30 min at 4° C. by using a Beckman SW41 rotor and the final pellet was resuspended in 50 volumes of TME.
(§6) The obtained membranes (50-80 μg of proteins) were incubated in the presence of 1 nM di[^3H]-CP55,940 for 1 h at 30° C. in a final volume of 0.5 ml of TME buffer containing 5 mg/ml of bovine serum albumin (BSA). The non specific binding was measured in the presence of CP55,940 at the 1 μM concentration.
(§7) All the experiments were carried out in polypropylene test tubes pretreated with Sigma-Cote (Sigma Chemical Co. Ltd., Poole, UK) to reduce the non specific binding.
(§8) For the building of the competitive inhibition binding curves eight different concentrations of each compound were used.
(§9) Incubation was interrupted by addition of TME buffer (at 4° C.) containing 5 mg/ml of BSA and filtration under vacuum through Whatman GFC filters pretreated with 0.5% of polyethylamine (PEI) and by using a filtering apparatus (Brandell, Gaithersburg, Md., USA). Filters were washed 3 times with 5 ml of Tris HCl buffer (pH 7.4, 4° C.) containing 1 mg/ml of BSA and singly placed in plastic vials containing 4 ml of scintillating liquid (Ultima Gold MV, Packard).
(§10) The radioactivity present in the filters was measured by a scintillator spectrophotometer (Tricarb 2100, Packard, Meridien, USA).
(§11) The protein determination was carried out by the Bradford method by using the protocol and the reactants supplied by Bio-Rad (Milano, Italia).
(§12) The affinity of the compounds towards the CB1 and CB2 receptors was expressed in Ki terms.

[2] = target: T2, cannabinoidergic CB2 receptors (Rattus norvegicus, UniProt Q9QZN9); assay: Radioreceptorial binding, [3H]-CP-55,940 competition, rat spleen membranes; settings: rat spleen membranes, 1 nM [3H]-CP55,940; read-out: CB2 (spleen) Ki
T2 construct: the brain in toto (cerebellum excluded) and the spleen were rapidly dissected and maintained in ice; from tissue; host or cells: rat spleen, membrane preparation
T2 sequence (Q9QZN9 1-360): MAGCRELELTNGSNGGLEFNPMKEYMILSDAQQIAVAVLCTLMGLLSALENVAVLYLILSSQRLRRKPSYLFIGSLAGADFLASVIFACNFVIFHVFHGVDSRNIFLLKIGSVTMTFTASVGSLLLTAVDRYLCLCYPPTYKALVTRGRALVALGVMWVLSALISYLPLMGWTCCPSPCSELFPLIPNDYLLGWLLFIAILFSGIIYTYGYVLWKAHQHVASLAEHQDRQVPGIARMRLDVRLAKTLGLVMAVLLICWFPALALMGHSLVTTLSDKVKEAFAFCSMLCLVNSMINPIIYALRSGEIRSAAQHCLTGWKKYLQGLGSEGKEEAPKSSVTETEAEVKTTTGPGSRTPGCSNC
Description: as §1, §2, §3, §4, §5, §6, §7, §8, §9, §10, §11, §12

[3] = system: rat; assay: Hypothermia test in vivo, antagonism of the hypothermia induced by WIN 55,212-2; settings: for Body temperature: WIN 55,212-2 (3 mg/kg) + compound (0.1-30 mg/kg)
Description: The rectal temperature in the rat was determined by an electronic thermometer inserted at a 2 mm depth. The measurements were carried out on rats acclimated for one hour. The rectal temperature was determined before and after (from 30 to 120 minutes) the i.p. administration of the compound to be tested.

[4] = system: rat; settings: for Body temperature: compound alone 0.1-30 mg/kg i.p.; for passage of the hemato-encephalic barrier: concluded from the hypothermia tests
Description: The rectal temperature in the rat was determined by an electronic thermometer inserted at a 2 mm depth. The measurements were carried out on rats acclimated for one hour. […]
Each test was repeated on ten animals; the reported results are the average of the results obtained with the ten animals.

Row | melting point [°C] | SMILES | Ki [1] [nM] | Ki [2] [nM] | passage of the hemato-encephalic barrier [4] | further results
1 | – | O=C(NN1CCCCC1)c1nn(-c2ccc(Cl)cc2Cl)c2c1CCc1sc(Cl)cc1-2 [Example 3.1, N-piperidinyl-7-chloro-1-(2′,4′-dichlorophenyl)-4,5-dihydro-1H-thieno[2,3-g]indazol-3-carboxamide] | 44.3 ± 0.5 | 67.4 ± 6 | – | –
2 | – | O=C(NN1CCCCC1)c1nn(-c2ccc(Cl)cc2Cl)c2c1CCc1sc(Br)cc1-2 [Example 3.2, N-piperidinyl-7-bromo-1-(2′,4′-dichlorophenyl)-4,5-dihydro-1H-thieno[2,3-g]indazol-3-carboxamide] | 4.47 ± 0.14 | 36.8 ± 5 | not able to pass the hemato-encephalic barrier | Body temperature ([3]; 0 min): 38.0 °C; Body temperature ([3]; 15 min): 38.0 °C; Body temperature ([3]; 30 min): 34.0 °C; Body temperature ([3]; 60 min): 34.5 °C; Body temperature ([3]; 90 min): 35.8 °C; Body temperature ([3]; 120 min): 36.8 °C; antagonist activity towards the hypothermia induced by WIN 55,212-2, in words ([3]; compound i.p. 30 min before WIN 55,212-2 (3 mg/kg)): no variation of the body temperature with respect to the treatment with the only WIN 55,212-2; Body temperature ([4]; 0 min): 38.0 °C; Body temperature ([4]; 15 min): 37.9 °C; Body temperature ([4]; 30 min): 38.0 °C; Body temperature ([4]; 60 min): 38.2 °C; Body temperature ([4]; 90 min): 38.1 °C; Body temperature ([4]; 120 min): 37.9 °C; effect on body temperature (hypothermia) of the compound alone, in words ([4]; i.p., compound alone, up to 120 min): In none of the examined cases there was a reduction of the body temperature
3 | 176 | O=C(NN1CCCCCC1)c1nn(-c2ccc(Cl)cc2Cl)c2c1CCc1sc(Br)cc1-2 [Example 3.8, N-homopiperidinyl-7-bromo-1-(2′,4′-dichlorophenyl)-4,5-dihydro-1H-thieno[2,3-g]indazol-3-carboxamide] | 9.6 ± 1.7 | 60 ± 1 | – | –
4 | 216 | Cc1cc2c(s1)CCc1c(C(=O)NN3CCCCC3)nn(-c3ccc(Cl)cc3Cl)c1-2 [Example 3.9, N-piperidinyl-7-methyl-1-(2′,4′-dichlorophenyl)-4,5-dihydro-1H-thieno[2,3-g]indazol-3-carboxamide] | 7.88 ± 0.5 | 55.1 ± 6 | unable to pass the hemato-encephalic barrier | –
5 | 229 | Cc1cc2c(s1)CCc1c(C(=O)NN3CCCCCC3)nn(-c3ccc(Cl)cc3Cl)c1-2 [Example 3.11, N-homopiperidinyl-7-methyl-1-(2′,4′-dichlorophenyl)-4,5-dihydro-1H-thieno[2,3-g]indazol-3-carboxamide] | 57 ± 6 | 57.1 ± 5 | – | –

Row | SMILES | melting point [°C] | Ki [1] [nM] | Ki [2] [nM] | passage of the hemato-encephalic barrier [4] | further results
6 | O=C(NN1CCCC1)c1nn(-c2ccc(Cl)cc2Cl)c2c1CCc1sc(Br)cc1-2 [Example 3.7, N-pyrrolidinyl-7-bromo-1-(2′,4′-dichlorophenyl)-4,5-dihydro-1H-thieno[2,3-g]indazol-3-carboxamide] | 227 | 126 ± 5 | 195 ± 27 | – | –
